Biological target: T1, human recombinant MnSOD (Homo sapiens, UniProt P04179)
T1 sequence (P04179 25-222): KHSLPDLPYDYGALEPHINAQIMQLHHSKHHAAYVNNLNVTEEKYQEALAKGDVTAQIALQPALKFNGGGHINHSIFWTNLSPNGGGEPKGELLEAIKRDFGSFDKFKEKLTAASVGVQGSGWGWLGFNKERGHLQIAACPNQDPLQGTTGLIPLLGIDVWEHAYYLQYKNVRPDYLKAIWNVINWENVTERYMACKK
Assay: SOD activity of human recombinant MnSOD treated with peroxynitrite
Format: biochemical
Settings: human recombinant MnSOD with peroxynitrite (2.1 mM PN), 10 minutes on ice
Method: Peroxynitrite was diluted by 40 times with 0.3 M NaOH, and absorbance at 302 nm was measured. Then, it was quantified by using the molar absorption coefficient of peroxynitrite) (ε302=1670 M^−1 cm^−1).
For the measurement of SOD activity, SOD colorimetric activity kit by ThermoFisher was used. Human recombinant MnSOD within reference SOD range, peptide, and peroxynitrite were admixed with one another, and the reaction was allowed to occur on ice for 10 minutes. To a 96-well plate, 10 μl of reference SOD or the reaction mixture, and 50 μl of a substrate solution provided in the kit were added, and the absorbance at 450 nm was measured. After adding 25μl of xanthine oxidase provided in the kit and allowing the reaction to occur for 20 minutes at room temperature, absorbance at 450 nm was measured. By using the data obtained by subtracting the first-measured absorbance from the second-measured absorbance, SOD activity was obtained.

N[C@H](Cc1ccc(O)cc1)C(=O)O [D-tyrosine]
MnSOD (SOD) activity: higher MnSOD activity

— patent US12605350B2, “Composition for preventing, ameliorating, or treating disease caused by nitration of tyrosine in proteins comprising tyrosine as effective component” (INDUSTRY-ACADEMIC COOPERATION FOUNDATION GYEONGSANG …, priority 2020, dated 2026)
